Test results reported in patent publication US20090318468A1, “PYRAZOLE COMPOUNDS 436” (AstraZeneca AB, priority 2008, published 2009).
“And” between values parts separate entries of the source, which are not always exact repeats. Equal values may be shown once.

Assays:
FGFR4 [1] = target: T1, FGFR4 (Homo sapiens, UniProt P22455); test: FGFR4 Kinase Assay - Caliper; assay type: biochemical; settings: 30 μM ATP, separate test occasions listed, read-out: IC50 (inhibition of FGFR4 kinase activity)
Experimental: FGFR4 Kinase Assay—Caliper
To determine inhibition of FGFR4 activity, kinase assays were conducted using Caliper technology. FGFR4 enzyme was used (8 μM, Cat. No. PR4380B, Invitrogen). Kinase activity assays were performed in Greiner 384-well low volume plates, with a total reaction volume of 12 μL per well. The final concentration of FGFR4 active kinase in each reaction well was 25 nM. The substrate for each assay was a custom peptide with fluorescent tag (13 amino acids in length, 5FAM-[…]—CONH2) the sequence of which was specific for FGFR4 kinase.
Compounds were serially diluted in 5% (v/v) DMSO, before being added to assay plates. The Enzyme (at 25 nM (final)) and Substrate (at 1.5 μM (final)) were added separately to the compound plates, in reaction buffer (comprising: 100 mM HEPES—pH 7.5, 0.004% Triton, 1 mM DTT (final), 10 mM MnCl2 (final), 30 μM ATP (final)) resulting in a final DMSO concentration in the reaction mix of 0.8%.
Assay plates were incubated at RT for 2 hours, before the reaction was stopped with the addition of buffer (comprising: 100 mM HEPES—pH7.5, 0.033% Brij-35, 0.22% Caliper Coating Reagent #3, 40 mM EDTA, 5% DMSO). Stopped assay plates were then read using the Caliper LabChip™ LC3000 (which uses microfludics to measure a shift in mobility between fluorescent labelled peptide and the FGFR4 kinase—phosphorylated form of this peptide). […]

FGFR4 [2] = target: T1, FGFR4; test: Cell FGFR4 (ECHO) Assay: inhibition of transiently expressed FGFR4 phosphorylation in Cos-1 cells; assay type: cell-based; parameters: expressed in transfected cells; host or cells: Cos-1; settings: Cos-1 cells transiently expressing FGFR4, 1 hour incubation; read-out: IC50 (inhibition of phosphorylated FGFR4)
Description: Cell based inhibition of transiently expressed FGFR4 phosphorylation via use of ECHO technology (measured using phospho-specific primary and fluorescent secondary antibodies).
This assay is designed to detect inhibitors of transiently expressed FGFR4 phosphorylation by antibody staining of fixed cells detected using ArrayScan technology. Cos-1 cells were routinely passaged in DMEM (Gibco BRL, 41966) plus 3% foetal calf serum (FCS), 1% L-glutamine (Gibco BRL, 25030) to a confluence of 80%. To undertake the assay, Cos-1 cells were harvested at 90-95% confluence for cell transfection. For each 96-well plate, 24 μL Lipofectamine 2000 was added to 809 μL OptiMEM and incubated at room temperature for 5 minutes. For each 96 well plate, 20 μg 3′ FLAG tagged FGFR4/pcDNA3.1 (MSD 6273) was diluted with OptiMEM to a total volume of 833 μL. Equal volumes of DNA and Lipofectamine 2000 were combined (DNA:Lipid=1:1.2 ratio) and incubated at room temperature for 20 minutes.
The harvested Cos-1 cells are counted using a coulter counter and diluted further with 1% FCS/DMEM to 1.2×10^5 cells/mL. For each 96-well, 8.33 mL cells were required. […]
Media was removed from the wells using vacuum aspiration; cells were fixed by adding 50 μL of 100% methanol to each well and incubated at room temperature for 20 minutes. […] The plates were read on an Arrayscan (Cellomics). […]

T1 sequence (P22455 22-802): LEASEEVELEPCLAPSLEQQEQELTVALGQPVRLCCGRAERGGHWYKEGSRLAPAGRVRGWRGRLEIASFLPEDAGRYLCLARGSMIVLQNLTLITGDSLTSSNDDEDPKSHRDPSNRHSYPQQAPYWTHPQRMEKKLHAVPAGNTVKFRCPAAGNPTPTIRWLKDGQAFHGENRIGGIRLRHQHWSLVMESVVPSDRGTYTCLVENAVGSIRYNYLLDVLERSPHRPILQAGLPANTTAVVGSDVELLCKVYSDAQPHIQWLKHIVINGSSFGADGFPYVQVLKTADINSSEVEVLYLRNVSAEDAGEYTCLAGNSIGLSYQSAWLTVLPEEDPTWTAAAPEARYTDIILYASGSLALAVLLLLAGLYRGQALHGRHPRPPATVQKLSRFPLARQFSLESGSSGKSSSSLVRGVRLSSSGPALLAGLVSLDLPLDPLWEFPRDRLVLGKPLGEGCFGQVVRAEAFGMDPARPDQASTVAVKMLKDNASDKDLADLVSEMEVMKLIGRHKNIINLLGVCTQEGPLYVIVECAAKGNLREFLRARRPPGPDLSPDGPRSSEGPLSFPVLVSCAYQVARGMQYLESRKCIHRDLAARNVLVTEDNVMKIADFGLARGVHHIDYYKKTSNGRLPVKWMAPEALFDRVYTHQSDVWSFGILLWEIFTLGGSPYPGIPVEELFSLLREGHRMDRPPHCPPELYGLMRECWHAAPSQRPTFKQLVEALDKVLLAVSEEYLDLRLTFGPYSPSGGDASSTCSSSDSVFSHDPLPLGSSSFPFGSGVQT

IC50 (FGFR4 [1]): 22 nM and 16 nM (2×)
IC50 (FGFR4 [2]): 29 nM and 33 nM and 45 nM and 28 nM
Structure (SMILES): COc1cc(CCc2cc(NC(=O)c3ccc(N4CCN(C)[C@H](C)C4)cc3)[nH]n2)cc(OC)c1 [Example 1b, (R)—N-(3-(3,5-Dimethoxyphenethyl)-1H-pyrazol-5-yl)-4-(3,4-dimethylpiperazin-1-yl)benzamide]
